The values that follow come from patent US20220106296A1, “CYANOTRIAZOLE COMPOUNDS AND USES THEREOF” (Novartis AG, priority 2018, published 2022).

Experiment [1] relates to intracellular T. cruzi amastigotes. Nature of the experiment: T. cruzi amastigote growth inhibition assay (NIH 3T3 host cells, β-galactosidase readout). Format: cell-based. The settings on record: Trypanosoma cruzi, NIH3T3, read-out: (c) T.c.* IC50. As to the method: NIH 3T3 fibroblast cells (ATCC) were maintained in RPMI-1640 medium (Life Technologies) supplemented with 10% heat-inactivated fetal bovine serum and 100 IU penicillin/100 μg/ml streptomycin at 37° C./5% CO2. T. cruzi Tulahuen parasites constitutively expressing E. coli β-galactosidase were maintained in tissue culture as an infection in NIH 3T3 fibroblast cells. Briefly, 2×10^7 T. cruzi trypomastigotes were used to infect 6×10^5 NIH 3T3 cells growing in T75 CELLSTAR tissue culture flasks and cultured at 37° C./5% CO2 until proliferating intracellular parasites lysed host 3T3 cells and were released into the culture medium (typically 6-7 days). During the infection, the tissue culture medium was changed every two days. Number of T. cruzi trypomastigotes present in 1 ml of medium was determined using a haemocytometer.
To determine compound potency on intracellular T. cruzi amastigotes, NIH 3T3 cells were re-suspended in phenol red-free RPMI-1640 medium containing 3% heat-inactivated fetal bovine serum and 100 IU penicillin/100 μg/ml streptomycin, seeded at 1,000 cells/well (40 μl) in white, clear bottom 384-well plates (Greiner Bio-One), and incubated overnight at 37° C./5% CO2. The following day, 100 nl of each compound in DMSO were transferred to individual plate wells by Echo 555 acoustic liquid handling system. After one hour incubation, 1×10^6 of tissue culture-derived T. cruzi trypomastigotes, in 10 μl of phenol red-free RPMI-1640 medium supplemented with 3% heat-inactivated fetal bovine serum and 100 IU penicillin/100 μg/ml streptomycin were added to each well. Plates were then incubated for 6 days at 37° C./5% CO2. Intracellular T. cruzi parasites were quantified by measuring the activity of parasite-expressed β-galactosidase. Ten microliters of a chromogenic β-galactosidase substrate solution (0.6 mM chlorophenol red-β-D-galactopyranoside/0.6% NP-40 in PBS; both reagents from Calbiochem) were added to each well and incubated for 2 h at room temperature. After incubation, absorption was measured at 570 nm on SpectraMax M2 plate reader (Molecular Devices). Measured absorbance values in wells with compounds were divided by the average absorbance value of the plate DMSO controls, and used for calculation of compound EC50 values as described above.

In experiment [2] the test system is T. b. brucei Lister427 bloodstream form parasites. Put plainly: T. b. brucei growth inhibition assay (CellTiter-Glo, 48 hours). Format: cell-based. The settings on record: Trypanosoma brucei. In short, it runs like this:
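1×10^4 bloodstream-form parasites/well in HMI-9 medium exposed to 10-point, 3-fold compound dilutions for 48 h at 37 °C, 5% CO2. Parasite number quantified as intracellular ATP by CellTiter-Glo luminescence, normalized to DMSO controls for IC50 calculation.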
(Cellular ATP, detected with luciferase, serves as a proxy for viable cell number.)

Experiment [3] relates to stage I mouse model, hemolymphatic (blood stream) form of human infection. Nature of the experiment: Stage I mouse model of HAT. The experiment is classed as in vivo. An excerpt:
(§1) Based on the favorable in vitro and in vivo pharmacological properties, selected cyanotraizole compounds were chosen for testing in stage I and stage II mice models. The stage I mouse model represents the hemolymphatic (blood stream) form of human infection.

For experiment [4], the system named is stage II mouse model, CNS form of the disease. Put plainly: Stage II mouse model of HAT. The experiment is classed as in vivo.
Description: as §1

A further experiment deals with T.b. gambinese STIB930. Put plainly: T.b. gambiense growth inhibition assay. The experiment is classed as cell-based. Particulars: Trypanosoma brucei, read-out: (b) T.b.g* IC50. As to the method:
Bloodstream form of T. b. brucei Lister427 strain was obtained from the Genomics Institute of the Novartis Research Foundation. This strain was used for carrying out growth inhibition and kill kinetics assays. T. b. gambiense STIB930 and T. b. rhodesiense STIB900 were obtained from Swiss TPH, were used for carrying out the growth inhibition assays. Bloodstream form of T. b. gambiense and T. b. rhodesiense were also grown in HMI-9 media, described above, but the media was supplemented by 5% human serum and 5% heat-inactivated FBS instead of 10% FBS. To determine compound growth inhibitory potency on T. b. brucei Lister427 bloodstream form parasites, 200 nL of 10-point, 3 fold serially diluted compounds in DMSO were transferred to the wells of white, solid bottom 384-well plates (Greiner Bio-One) by either Echo 555 acoustic liquid handling system or Mosquito. Then, 1×10^4 of T. b. brucei parasites in 40 μL of HMI-9 medium were added to each well, and the plates were incubated for 48 hours at 37° C. in 5% CO2 incubators. Parasite numbers in individual plate wells were determined through quantification of intracellular ATP amount. The CellTiter-Glo luminescent cell viability reagent (Promega) was added to plate wells, and ATP-dependent luminescence signal was measured on Tecan M1000 plate Reader after 30 min incubation. Luminescence values in wells with compounds were divided by the average luminescence value of the plate DMSO controls, and used for calculation of compound IC50 values. Similar assay was also used for determining IC50 against T.b. gambinese STIB930 and T. b. rhodesiense STIB900 strains, but the initial concentration of cells used was 3×10^4 parasites/ml.

Experiment [5] deals with Leishmania donovani axenic amastigote. Nature of the experiment: Growth inhibition of Leishmania donovani axenic amastigote. The experiment is classed as cell-based. The settings on record: L. donovani growth inhibition, read-out: (d) L.d* IC50. As to the method:
Leishmania donovani axenic amastigote parasites are grown at 37° C., 5% CO2 in media made of RPMI 1640, 4 mM L-glutamine, 20% heat inactivated FBS, 100 units/ml of penicillin and 100 μg/ml of streptomycin, 23 μM Folic Acid, 100 μM Adenosine, 22 mM D-glucose, 25 mM MES. The pH of media is adjusted to 5.5 at 37° C. using HCl. 20 μL of media is first dispensed into 384 well plates and 100 nL of the compounds of invention in DMSO are added to the plate wells. At the same time control compounds and DMSO are added to plates to serve as the positive and negative controls, respectively. 40 μL of parasite culture (9600 parasites) are then added to the plate wells. The plates are then placed into incubators. After 2 day incubation, 20 μL of Cell TiterGlo (Promega) is added to the plate wells. The luminescence signal of each well is measured using the Envision reader (Perkin Elmer). The percentage inhibition of 50%, EC50, is calculated for each of the compounds.

Some results are limits rather than exact numbers.

For orientation: IC50 means the midpoint of a concentration-inhibition curve. As for `N#Cc1ncn(CC(=O)N2Cc3ccc(-c4cc(F)cnc4C(F)(F)F)cc3C2)n1` [Example 8, 1-(2-(5-(5-fluoro-2-(trifluoromethyl)pyridin-3-yl)isoindolin-2-yl)-2-oxoethyl)-1H-1,2,4-triazole-3-carbonitrile], the IC50 in experiment [1] and in experiment [2] was 100 to 1000 nM in each case. Also, the “cure in stage I mouse model” value in experiment [3] (10 mg/kg QD) is listed as “complete cure without relapse”. Besides, in experiment [4] (10 mg/kg QD), the “cure in stage II mouse model” value was “complete cure without relapse”.

Regarding `N#Cc1ncn(CC(=O)N2Cc3ccc(-c4ccncc4C(F)(F)F)cc3C2)n1` [Example 27, 1-(2-oxo-2-(5-(3-(trifluoromethyl)pyridin-4-yl)isoindolin-2-yl)ethyl)-1H-1,2,4-triazole-3-carbonitrile], the IC50 (in experiment [1]; in experiment [2]; with T.b. gambinese STIB930) was below 100 nM each time.

With `N#Cc1ncn(CC(=O)N2Cc3ccc(-c4ccc(F)cc4C(F)(F)F)cc3C2)n1` [Example 29, 1-(2-(5-(4-fluoro-2-(trifluoromethyl)phenyl)isoindolin-2-yl)-2-oxoethyl)-1H-1,2,4-triazole-3-carbonitrile], the IC50 in experiment [1] was below 100 nM; in experiment [2], below 100 nM; with T.b. gambinese STIB930, 100 to 1000 nM; in experiment [5], at least 1000 nM. In addition, in experiment [3] (10 mg/kg BID), the “cure in stage I mouse model” value was “complete cure without relapse”. Further, in experiment [4] (100 mg/kg QD), the “cure in stage II mouse model” value is reported as “complete cure without relapse”.

For the compound `N#Cc1ncn(CC(=O)N2Cc3ccc(-c4cc(F)c(F)cc4Cl)cc3C2)n1` [Example 30, 1-(2-(5-(2-chloro-4,5-difluorophenyl)isoindolin-2-yl)-2-oxoethyl)-1H-1,2,4-triazole-3-carbonitrile], the half-maximal inhibitory concentration (IC50) in experiment [1] is below 100 nM; in experiment [2] it was below 100 nM; with T.b. gambinese STIB930 it was 100 to 1000 nM; in experiment [5], at least 1000 nM.

For the compound `COc1ccc(-c2ccc3c(c2)CN(C(=O)Cn2cnc(C#N)n2)C3)c(C(F)(F)F)c1` [Example 31, 1-(2-(5-(4-methoxy-2-(trifluoromethyl)phenyl)isoindolin-2-yl)-2-oxoethyl)-1H-1,2,4-triazole-3-carbonitrile], the concentration for half-maximal inhibition (IC50) in experiment [1] is below 100 nM; in experiment [2], below 100 nM; in the experiment on T.b. gambinese STIB930 it was 100 to 1000 nM; in experiment [5], at least 1000 nM.

For the compound `N#Cc1ncn(CC(=O)N2Cc3ccc(-c4ccccc4Cl)cc3C2)n1` [Example 33, 1-(2-(5-(2-chlorophenyl)isoindolin-2-yl)-2-oxoethyl)-1H-1,2,4-triazole-3-carbonitrile], the 50% inhibitory concentration (IC50) is below 100 nM in experiment [1], 100 to 1000 nM in experiment [2], 100 to 1000 nM in the experiment on T.b. gambinese STIB930 and at least 1000 nM in experiment [5].

Consider `COc1ccc(-c2ccc3c(c2)CN(C(=O)Cn2cnc(C#N)n2)C3)c(Cl)c1` [Example 34, 1-(2-(5-(2-chloro-4-methoxyphenyl)isoindolin-2-yl)-2-oxoethyl)-1H-1,2,4-triazole-3-carbonitrile], for which the IC50 is below 100 nM in experiment [1], 100 to 1000 nM in experiment [2], 100 to 1000 nM in the experiment with T.b. gambinese STIB930 and at least 1000 nM in experiment [5].

Regarding `N#Cc1ncn(CC(=O)N2Cc3ccc(-c4ccc(F)cc4Cl)cc3C2)n1` [Example 37, 1-(2-(5-(2-chloro-4-fluorophenyl)isoindolin-2-yl)-2-oxoethyl)-1H-1,2,4-triazole-3-carbonitrile], the IC50 is below 100 nM in experiment [1], 100 to 1000 nM in experiment [2] and 100 to 1000 nM in the experiment on T.b. gambinese STIB930.

On to `N#Cc1ncn(CC(=O)N2Cc3ccc(-c4ccc(Cl)cc4Cl)cc3C2)n1` [Example 38, 1-(2-(5-(2,4-dichlorophenyl)isoindolin-2-yl)-2-oxoethyl)-1H-1,2,4-triazole-3-carbonitrile], for which the IC50 in experiment [1] was below 100 nM; in experiment [2], 100 to 1000 nM; in the experiment on T.b. gambinese STIB930, 100 to 1000 nM; in experiment [5], at least 1000 nM.

As to `N#Cc1ccc(F)c(-c2ccc3c(c2)CN(C(=O)Cn2cnc(C#N)n2)C3)c1` [Example 41, 1-(2-(5-(5-cyano-2-fluorophenyl)isoindolin-2-yl)-2-oxoethyl)-1H-1,2,4-triazole-3-carbonitrile], the 50% inhibitory concentration (IC50) was below 100 nM in experiment [1], 100 to 1000 nM in experiment [2], 100 to 1000 nM in the experiment on T.b. gambinese STIB930 and at least 1000 nM in experiment [5].

Turning to `N#Cc1ncn(CC(=O)N2Cc3ccc(-c4cc(F)c(F)cc4F)cc3C2)n1` [Example 45, 1-(2-oxo-2-(5-(2,4,5-trifluorophenyl)isoindolin-2-yl)ethyl)-1H-1,2,4-triazole-3-carbonitrile], the half-inhibitory concentration (IC50) (in experiment [1]; in experiment [2]; in the experiment on T.b. gambinese STIB930) was 100 to 1000 nM throughout.

On to `N#Cc1ncn(CC(=O)N2Cc3ccc(-c4cccnc4C(F)(F)F)cc3C2)n1` [Example 85, 1-(2-oxo-2-(5-(2-(trifluoromethyl)pyridin-3-yl)isoindolin-2-yl)ethyl)-1H-1,2,4-triazole-3-carbonitrile], for which the IC50 was below 100 nM in experiment [1], below 100 nM in experiment [2], below 100 nM in the experiment on T.b. gambinese STIB930 and at least 1000 nM in experiment [5]. For the same compound, in experiment [3] (10 mg/kg QD), the “cure in stage I mouse model” value was “complete cure without relapse”. Moreover, the “cure in stage II mouse model” value in experiment [4] (15 mg/kg QD) is “complete cure without relapse”.
